# pIC50: −log10 of the molar value.
# Key:
# hERG channel = hERG channel (Homo sapiens, UniProt Q12809); test: hERG channel binding assay (predictor hERG fluorescence polarization)
# Description: hERG channel binding assay was performed using predictor hERG fluorescence polarization assay (Cat.No. PV5365, Invitrogen, Grand Island, NY, USA) according to the manufacturer’s instructions. […] Fluorescence intensity (Excitation at 530 nm, Emission at 590 nm) was measured using a multi-mode microplate reader Synergy Neo (Biotek, Winooski, VT, USA).
# CYP1A2 = biological target: T1, CYP1A2 (Homo sapiens, UniProt P05177); test: CYP inhibition assay, cocktail, human liver microsomes (phenacetin O-deethylase); assay type: in vitro ADME; details: 10 μM, activity in presence of inhibitor as % of control
# T1 sequence (P05177 1-516): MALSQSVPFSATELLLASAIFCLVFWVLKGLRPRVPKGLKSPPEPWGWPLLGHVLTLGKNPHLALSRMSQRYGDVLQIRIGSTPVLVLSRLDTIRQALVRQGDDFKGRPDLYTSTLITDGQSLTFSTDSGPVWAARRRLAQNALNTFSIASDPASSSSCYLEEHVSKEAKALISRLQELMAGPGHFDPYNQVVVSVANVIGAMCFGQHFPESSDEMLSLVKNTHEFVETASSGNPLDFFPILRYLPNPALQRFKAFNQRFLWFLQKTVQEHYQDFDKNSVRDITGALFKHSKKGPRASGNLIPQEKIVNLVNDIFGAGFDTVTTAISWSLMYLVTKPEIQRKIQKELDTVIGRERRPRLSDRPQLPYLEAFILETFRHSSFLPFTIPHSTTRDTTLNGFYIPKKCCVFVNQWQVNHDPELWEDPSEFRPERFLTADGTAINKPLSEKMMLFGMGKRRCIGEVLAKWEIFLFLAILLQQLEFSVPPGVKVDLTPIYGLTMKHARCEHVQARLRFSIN
# ERα = biological target: T2, ERα (Homo sapiens, UniProt P03372); test: TR-FRET (LanthaScreen) ERα binding assay; details: maximum concentration tested 10 μM
# T2 construct: purchased Life Technologies
# T2 sequence (P03372 311-547 limits assumed): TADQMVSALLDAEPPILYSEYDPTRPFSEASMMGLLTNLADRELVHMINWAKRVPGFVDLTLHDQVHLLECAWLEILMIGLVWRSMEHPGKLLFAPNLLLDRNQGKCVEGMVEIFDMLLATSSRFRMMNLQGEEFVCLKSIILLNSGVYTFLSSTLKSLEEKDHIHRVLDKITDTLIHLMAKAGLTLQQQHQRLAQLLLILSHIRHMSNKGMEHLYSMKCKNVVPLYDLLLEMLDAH
# Description: (§1) ERRγ binding assay was conducted with Lantascreen assay system (Life Technologies, Grand Island, NY, USA), which was based on TR-FRET, followed by manufacturer’s instruction. Briefly, compounds were serially diluted with 2-fold staring from 10 μM and 10 μL of each diluent was added in 384 well plate. Then, GST-conjugated ERRγ LBD (ligand-binding domain) was added to be 5 nM. Next, the mixture of fluorescien-conjugated coactivator PGC1a (final concentration to be 500 nM) and Tb-a-GST antibody (final concentration to be 5 nM) was added. The reaction mixture was incubated at rt in dark state for 1 h.
# (§2) ERRs and ERα binding assay used same assay system as ERRγ’s, Lanthascreen assay system. Therefore, procedure was same as ERRγ binding assay except tested enzymes (ERRα, ERRβ, ERα). Used reference compounds were 4-OHT 1 for ERα and ERRβ binding assay, and XCT790 for ERRα binding assay.
# ERRγ [1] = biological target: T3, ERRγ (Homo sapiens, UniProt P62508); test: ERRγ functional assay: GAL4-ERRγ luciferase reporter gene in AD293 cells; assay type: cell-based
# T3 sequence (P62508 233-458 limits assumed): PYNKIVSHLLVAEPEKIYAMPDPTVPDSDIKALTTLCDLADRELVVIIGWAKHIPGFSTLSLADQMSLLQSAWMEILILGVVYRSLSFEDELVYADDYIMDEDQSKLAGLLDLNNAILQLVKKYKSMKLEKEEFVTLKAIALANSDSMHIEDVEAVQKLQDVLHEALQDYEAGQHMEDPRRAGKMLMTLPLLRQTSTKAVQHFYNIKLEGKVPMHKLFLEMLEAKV
# Description: Along with the binding assay campaign, functional activity was determined in order to validate the utility of the binding affinity in a cellular context as described in the Experimental.
# Figure 2 Cell based reporter-gene assay screening of 16 analogs ERRγ binding activity in cell was measured by luciferase activity using co-transfection system with GAL4-ERRγ and pFR-luciferase reporter gene.
# AD293 cells were cultured in Dulbecco’ modified Eagle medium (DMEM) High glucose supplemented with 0.5% FBS (Hyclone, Logan, UT, USA). After 24 h, culture media was changed with DMEM High glucose containing 10% FBS. DNA constructs, which includes pCMX-Gal4-ERRγ, pFR-luciferase reporter plasmid, pCMV-β-gal were transiently transfected into AD293 cells using TransIT-LT1 transfection reagent (Mirus, Madison, WI, USA) for 24 h. Then, transfected cells were treated with compounds for 24 h and harvested for detection of luciferase activity and β-gal activity. All cells were incubated at 37 °C under 5% CO2 in a humidified incubator [5].
# CYP2C9 = CYP2C9 (Homo sapiens, UniProt P11712); test: CYP inhibition assay, cocktail, human liver microsomes (tolbutamide 4-hydroxylase); assay type: in vitro ADME
# Sequence of CYP2C9 (P11712 whole entry): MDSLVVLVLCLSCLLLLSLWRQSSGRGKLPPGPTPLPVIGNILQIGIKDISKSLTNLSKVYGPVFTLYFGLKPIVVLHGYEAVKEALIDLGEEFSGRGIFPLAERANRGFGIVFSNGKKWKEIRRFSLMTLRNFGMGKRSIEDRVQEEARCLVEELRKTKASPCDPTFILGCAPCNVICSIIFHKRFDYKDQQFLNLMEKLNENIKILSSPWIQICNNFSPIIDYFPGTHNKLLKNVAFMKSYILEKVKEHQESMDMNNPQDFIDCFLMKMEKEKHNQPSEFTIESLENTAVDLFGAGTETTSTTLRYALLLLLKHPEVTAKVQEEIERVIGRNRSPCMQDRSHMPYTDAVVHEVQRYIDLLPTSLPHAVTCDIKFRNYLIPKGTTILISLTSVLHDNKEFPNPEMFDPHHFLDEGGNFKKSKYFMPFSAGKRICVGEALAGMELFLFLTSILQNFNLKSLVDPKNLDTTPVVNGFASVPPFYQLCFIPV
# ERRα = biological target: T4, ERRα (Homo sapiens, UniProt P11474); test: TR-FRET (LanthaScreen) ERRα binding assay; details: maximum concentration tested 10 μM
# T4 construct: purchased Life Technologies
# T4 sequence (P11474 193-421 limits assumed): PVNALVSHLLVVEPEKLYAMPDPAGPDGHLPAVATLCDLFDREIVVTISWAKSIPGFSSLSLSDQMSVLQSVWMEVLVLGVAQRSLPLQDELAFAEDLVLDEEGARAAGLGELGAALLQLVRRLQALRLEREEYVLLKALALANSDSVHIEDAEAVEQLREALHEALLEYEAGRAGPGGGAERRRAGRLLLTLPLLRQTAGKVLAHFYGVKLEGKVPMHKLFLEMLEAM
# Description: as §1, §2
# ERRγ [2] = biological target: T5, ERRγ (Homo sapiens, UniProt P62508); test: TR-FRET (LanthaScreen) ERRγ binding assay; details: Table 1 screening; 2-fold serial dilution from 10 μM; read-out: ERRγ, IC50 (binding inhibition of ERRγ binding activity)
# T5 construct: purchased Life Technologies
# T5 sequence (P62508 233-457 limits assumed): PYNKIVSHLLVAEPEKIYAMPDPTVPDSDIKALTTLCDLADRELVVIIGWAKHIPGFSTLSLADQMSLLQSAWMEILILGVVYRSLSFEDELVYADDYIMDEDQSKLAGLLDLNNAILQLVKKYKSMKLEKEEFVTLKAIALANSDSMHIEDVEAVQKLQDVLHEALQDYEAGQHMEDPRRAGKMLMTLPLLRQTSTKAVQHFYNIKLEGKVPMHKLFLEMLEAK
# Description: Initials creening was conducted using a well established TR-FRET based ERRγ binding assay as described in the Experimental section at a concentration of 10 μM. Serial dilutions of the synthesized compounds were used to calculate IC50 values for the binding affinity with ERRγ.
# as §1
# CYP2D6 = CYP2D6 (Homo sapiens, UniProt P10635); test: CYP inhibition assay, cocktail, human liver microsomes (dextromethorphan O-demethylase); assay type: in vitro ADME; details: 10 μM, activity in presence of inhibitor as % of control
# Sequence of CYP2D6 (P10635 whole entry): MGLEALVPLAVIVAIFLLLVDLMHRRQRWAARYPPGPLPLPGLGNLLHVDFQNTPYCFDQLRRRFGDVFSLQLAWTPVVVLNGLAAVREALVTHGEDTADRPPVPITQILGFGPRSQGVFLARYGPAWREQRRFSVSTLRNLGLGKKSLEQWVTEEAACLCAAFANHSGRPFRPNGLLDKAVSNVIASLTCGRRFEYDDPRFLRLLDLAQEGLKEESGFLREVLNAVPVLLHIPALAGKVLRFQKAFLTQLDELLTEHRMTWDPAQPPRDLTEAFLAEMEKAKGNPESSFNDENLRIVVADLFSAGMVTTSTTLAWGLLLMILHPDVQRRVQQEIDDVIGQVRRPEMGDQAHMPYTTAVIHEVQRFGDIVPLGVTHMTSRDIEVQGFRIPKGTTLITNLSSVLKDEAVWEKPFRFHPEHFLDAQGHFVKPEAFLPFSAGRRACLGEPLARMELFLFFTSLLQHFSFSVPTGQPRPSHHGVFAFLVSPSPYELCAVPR
# ERRβ = biological target: T6, ERRβ (Homo sapiens, UniProt O95718); test: TR-FRET (LanthaScreen) ERRβ binding assay; details: maximum concentration tested 10 μM
# T6 construct: purchased Life Technologies
# T6 sequence (O95718 208-432 limits assumed): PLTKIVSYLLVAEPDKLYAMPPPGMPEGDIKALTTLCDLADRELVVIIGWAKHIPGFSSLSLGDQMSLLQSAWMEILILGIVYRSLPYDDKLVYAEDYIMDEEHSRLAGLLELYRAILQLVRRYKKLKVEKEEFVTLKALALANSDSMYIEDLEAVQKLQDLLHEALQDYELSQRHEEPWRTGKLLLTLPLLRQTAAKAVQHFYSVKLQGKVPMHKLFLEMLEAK
# Description: as §1, §2
# CYP3A = test: CYP inhibition assay, cocktail, human liver microsomes (midazolam 1'-hydroxylase); assay type: in vitro ADME; details: 10 μM, activity in presence of inhibitor as % of control
# CYP2C19 = CYP2C19 (Homo sapiens, UniProt P33261); test: CYP inhibition assay, cocktail, human liver microsomes (S-mephenytoin 4-hydroxylase); assay type: in vitro ADME; details: 10 μM, activity in presence of inhibitor as % of control
# Sequence of CYP2C19 (P33261 whole entry): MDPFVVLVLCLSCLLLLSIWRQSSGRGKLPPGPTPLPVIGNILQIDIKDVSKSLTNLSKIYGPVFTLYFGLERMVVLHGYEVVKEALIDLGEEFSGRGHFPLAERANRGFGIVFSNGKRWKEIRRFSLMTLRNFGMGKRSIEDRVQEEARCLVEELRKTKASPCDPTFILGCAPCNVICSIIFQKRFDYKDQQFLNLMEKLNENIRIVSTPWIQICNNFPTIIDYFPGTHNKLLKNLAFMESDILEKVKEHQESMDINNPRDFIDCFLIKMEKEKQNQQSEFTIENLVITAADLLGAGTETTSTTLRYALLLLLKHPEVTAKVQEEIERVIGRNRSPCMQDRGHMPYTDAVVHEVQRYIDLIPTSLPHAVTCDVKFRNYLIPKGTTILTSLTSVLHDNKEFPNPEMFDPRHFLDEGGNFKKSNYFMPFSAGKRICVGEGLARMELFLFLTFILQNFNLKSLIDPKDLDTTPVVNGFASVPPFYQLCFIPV
# Sequence of hERG channel (Q12809 whole entry): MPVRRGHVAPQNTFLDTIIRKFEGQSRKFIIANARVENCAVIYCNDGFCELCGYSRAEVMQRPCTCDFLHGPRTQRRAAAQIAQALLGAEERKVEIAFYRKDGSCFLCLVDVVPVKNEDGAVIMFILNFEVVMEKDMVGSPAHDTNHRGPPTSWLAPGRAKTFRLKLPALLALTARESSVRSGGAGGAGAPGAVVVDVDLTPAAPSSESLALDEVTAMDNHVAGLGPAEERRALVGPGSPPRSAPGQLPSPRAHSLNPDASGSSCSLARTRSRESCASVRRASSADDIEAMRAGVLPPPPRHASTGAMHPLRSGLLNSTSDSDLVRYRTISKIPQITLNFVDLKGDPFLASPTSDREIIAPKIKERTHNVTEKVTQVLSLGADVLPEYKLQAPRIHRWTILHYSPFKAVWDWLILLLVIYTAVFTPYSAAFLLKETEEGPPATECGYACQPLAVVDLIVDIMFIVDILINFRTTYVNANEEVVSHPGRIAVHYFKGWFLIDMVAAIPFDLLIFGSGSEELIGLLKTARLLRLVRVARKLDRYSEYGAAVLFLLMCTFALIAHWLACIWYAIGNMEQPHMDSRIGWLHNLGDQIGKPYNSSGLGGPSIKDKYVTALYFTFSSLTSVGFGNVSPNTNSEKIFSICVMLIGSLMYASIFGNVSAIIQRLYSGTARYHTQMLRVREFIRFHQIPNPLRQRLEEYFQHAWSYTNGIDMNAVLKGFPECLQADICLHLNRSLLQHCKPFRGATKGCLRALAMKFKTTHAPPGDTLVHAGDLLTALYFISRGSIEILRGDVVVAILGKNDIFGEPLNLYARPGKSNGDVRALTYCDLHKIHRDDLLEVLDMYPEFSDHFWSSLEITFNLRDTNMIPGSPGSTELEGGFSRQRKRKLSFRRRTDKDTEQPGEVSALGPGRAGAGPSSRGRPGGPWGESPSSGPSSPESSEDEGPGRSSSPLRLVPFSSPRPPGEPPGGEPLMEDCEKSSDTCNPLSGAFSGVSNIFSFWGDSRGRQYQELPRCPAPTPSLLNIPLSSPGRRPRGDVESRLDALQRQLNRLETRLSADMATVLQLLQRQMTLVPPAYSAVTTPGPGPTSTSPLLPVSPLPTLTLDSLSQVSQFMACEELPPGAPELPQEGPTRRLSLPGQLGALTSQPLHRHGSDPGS
compound,measurement,setting,value
"CN(C)CCOc1ccc(/C(=C(/CCCO)c2ccc3cnn(C)c3c2)c2ccc(O)cc2)cc1 [Compound 15g, (Z)-4-(1-(4-(2-(Dimethylamino)ethoxy)phenyl)-5-hydroxy-2-(1-methyl-1H-indazol-6-yl)pent-1-en-1-yl)phenol]",pIC50,hERG channel,< 4.52
same,"CYP Inhibition (% of Control), 1A2",CYP1A2,>100 % of Control
same,pIC50,ERα,< 5.00
same,ERRγ Functional Assay at 10 μM (% of Control),"ERRγ [1]; 10 μM, AD293 cells, 24 h treatment, luciferase activity",5.4 % of Control
same,ERRγ functional activity in the cellular system (in words),"ERRγ [1]; 10 μM, reporter-gene assay, compared with control ligand 4",comparable regression of the ERRγ transcriptional activity
same,inhibition at 10 µM,"ERRγ [1]; AD293, 24 h, screening concentration of 10 μM, read-out: transcriptional repression",95%
same,"CYP Inhibition (% of Control), 2C9","CYP2C9; 10 μM, human liver microsomes, activity in presence of inhibitor as % of control",83 % of Control
same,inhibition of the CYP 2C9 subtype,CYP2C9; at a concentration of 10 μM,17%
same,"Binding Assay, IC50, ERRα",ERRα,no observable affinity
same,pIC50,ERRα,< 5.00
same,pIC50,ERRγ [2],6.36
same,"CYP Inhibition (% of Control), 2D6",CYP2D6,99 % of Control
same,"Binding Assay, IC50, ERRβ",ERRβ,no observable affinity
same,pIC50,ERRβ,< 5.00
same,"CYP Inhibition (% of Control), 3A4",CYP3A,88 % of Control
same,"CYP Inhibition (% of Control), 2C19",CYP2C19,95 % of Control

# — paper PMC6273807, “Identification of Selective ERRγ Inverse Agonists” (Molecules, 2016)
